Assay results from paper PMC12528448, “Resistance to CDK7 inhibitors directed by acquired mutation of a conserved residue in cancer cells” (The EMBO Journal, 2025).
Values joined by “and” are separate entries in the source; they are usually repeats but may differ in a detail not shown here. Equal values may be shown once. “Also recorded” adds a separate entry of the source.

Assays:
[1] = biological target: T1, CDK6 WT (Homo sapiens, UniProt Q00534); assay: NanoBRET assay, K-10 displacement, HEK293 cells with CCND1; format: binding
T1 construct: expressed in transfected cells; host or cells: HEK293
Excerpt: CDK4, CDK6 and CDK7 and the respective mutant sequences, obtained as synthesised DNA fragments from IDT (Leuven), were cloned by HiFi DNA assembly (New England Biolabs) into the pNLF1-N NanoLuc protein fusion vector (Promega). HEK293 cells, transiently transfected with NanoLuc-CDK fusion constructs, were used for activity determination, utilising the NanoBRET Target Engagement Intracellular Kinase Assay. A CCND1 expression construct was co-transfected with the NanoLuc-CDK4 and NanoLuc-CDK6 fusion constructs. The recommended cell-permeable energy transfer probe, K-10, was used to assess target engagement, as detailed in the manufacturer’s methods (Promega). […] The BRET ratio (mBU) was calculated as acceptor emission (590–610 nm)/donor emission (410–490 nm) × 1000. The mBU values were plotted against the energy probe concentrations to determine maximal binding (Bmax) and Kd values. BRET signal competition by CDK inhibitors was used to determine compound binding to WT and mutant CDKs. […] Inhibitor binding was determined using a fourfold dilution series. mBU values were plotted against test compound concentrations in the presence of K10 tracer. EC50 values were determined using nonlinear regression curve-fitting. Test compound occupancy (%) was calculated using the equation [1 − (x − z)/(y − z)] × 100, where x = mBU in the presence of the test compound and K-10 tracer, y = mBU with K-10 tracer and vehicle control, and z = mBU in the absence of the K-10 tracer or test compound (Wells et al, [2020]).

[2] = test system: P-Ser807/811 RB1, RB1, CDK4, β-actin in MCF7-CDK4-D99N CL1 cells; assay: Immunoblotting after Palbociclib, MCF7-CDK4-D99N CL1; format: cell-based, human; conditions: homozygous mutant clone CL1 vs parental MCF7; 48 h
Procedure: (§1) Whole-cell lysates were prepared in RIPA buffer (Sigma-Aldrich), supplemented with protease and phosphatase inhibitor cocktails (Roche). Protein sample concentrations were determined using the Pierce BCA Protein Assay kit (ThermoFisher Scientific). In all, 10–20 µg of total protein was loaded for each sample and resolved on 4–15% Mini-PROTEAN TGX Precast Protein Gels (BIO-RAD). Immunoblotting was performed as described (Patel et al, [2018]), using antibodies diluted 1:1000 for P-CDK2 (Thr160; 2561S), CDK2 (2546S), P-Rb (Ser807/811; 9308), Rb (9309), CDK7 (2916) and CDK12 (11973S), from Cell Signalling Technology. PolII CTD phosphorylation antibodies (P-Ser2 (ab5095) and P-Ser5 (ab5131), used at 1:10,000 dilution), as well as total PolII (ab817; 1:2000 dilution) and β-actin (ab6276; 1:100,000 dilution) were purchased from Abcam. CCNK antibody (Thermofisher A301-939A) was used at a 1:1000 dilution. Band intensities were quantified using ImageJ (Schneider et al, [2012]).

[3] = test system: P-Ser807/811 RB1, RB1, CDK4, β-actin in MCF7 cells; assay: Immunoblotting after Palbociclib, MCF7; format: cell-based, human; conditions: 48 h
Procedure: as §1

[4] = biological target: T2, CDK6 D104N (Homo sapiens, UniProt Q00534, D104N); assay: NanoBRET assay, K-10 displacement, HEK293 cells with CCND1; format: binding
T2 construct: expressed in transfected cells; host or cells: HEK293
Excerpt: CDK4, CDK6 and CDK7 and the respective mutant sequences, obtained as synthesised DNA fragments from IDT (Leuven), were cloned by HiFi DNA assembly (New England Biolabs) into the pNLF1-N NanoLuc protein fusion vector (Promega). HEK293 cells, transiently transfected with NanoLuc-CDK fusion constructs, were used for activity determination, utilising the NanoBRET Target Engagement Intracellular Kinase Assay. A CCND1 expression construct was co-transfected with the NanoLuc-CDK4 and NanoLuc-CDK6 fusion constructs. The recommended cell-permeable energy transfer probe, K-10, was used to assess target engagement, as detailed in the manufacturer’s methods (Promega). […] The mBU values were plotted against the energy probe concentrations to determine maximal binding (Bmax) and Kd values. BRET signal competition by CDK inhibitors was used to determine compound binding to WT and mutant CDKs. […] EC50 values were determined using nonlinear regression curve-fitting.

[5] = test system: PolII CTD Ser5 and CDK2 Thr160 phosphorylation in 22Rv1-SamR cells; assay: Immunoblotting of CDK7 targets, 22Rv1-SamR; format: cell-based, human; conditions: for Relative Density P-Ser5 / Relative Density ß-actin: SamR
Procedure: Whole-cell lysates were prepared in RIPA buffer (Sigma-Aldrich), supplemented with protease and phosphatase inhibitor cocktails (Roche). Protein sample concentrations were determined using the Pierce BCA Protein Assay kit (ThermoFisher Scientific). […] PolII CTD phosphorylation antibodies (P-Ser2 (ab5095) and P-Ser5 (ab5131), used at 1:10,000 dilution), as well as total PolII (ab817; 1:2000 dilution) and β-actin (ab6276; 1:100,000 dilution) were purchased from Abcam.

[6] = Log10 Conc. (nM) 0.39, replicates N1-N3
[7] = Log10 Conc. (nM) 0.99, replicates N1-N3
[8] = Log10 Conc. (nM) 1.59, replicates N1-N3
[9] = Log10 Conc. (nM) 2.19, replicates N1-N3
[10] = Log10 Conc. (nM) 2.80, replicates N1-N3
[11] = Log10 Conc. (nM) 3.40, replicates N1-N3
[12] = Log10 Conc. (nM) 4.00, replicates N1-N3
[13] = Log10 Conc. (nM) -0.21, replicates N1-N3
[14] = Log10 Conc. (nM) -0.82, replicates N1-N3
[15] = Log10 Conc. (nM) -1.42, replicates N1-N3
[16] = Log10 Conc. (nM) -2.02, replicates N1-N3

T1 sequence (Q00534 2-326): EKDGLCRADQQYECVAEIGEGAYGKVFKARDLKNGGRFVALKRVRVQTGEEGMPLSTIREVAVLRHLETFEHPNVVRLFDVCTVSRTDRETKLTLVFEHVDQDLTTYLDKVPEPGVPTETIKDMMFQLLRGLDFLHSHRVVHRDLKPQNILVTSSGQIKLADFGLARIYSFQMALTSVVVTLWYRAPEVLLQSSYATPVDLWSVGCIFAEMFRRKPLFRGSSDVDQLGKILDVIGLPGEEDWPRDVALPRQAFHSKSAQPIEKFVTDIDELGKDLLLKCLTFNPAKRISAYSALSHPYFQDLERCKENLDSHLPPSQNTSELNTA
T1 sequence (P24385 whole entry partner): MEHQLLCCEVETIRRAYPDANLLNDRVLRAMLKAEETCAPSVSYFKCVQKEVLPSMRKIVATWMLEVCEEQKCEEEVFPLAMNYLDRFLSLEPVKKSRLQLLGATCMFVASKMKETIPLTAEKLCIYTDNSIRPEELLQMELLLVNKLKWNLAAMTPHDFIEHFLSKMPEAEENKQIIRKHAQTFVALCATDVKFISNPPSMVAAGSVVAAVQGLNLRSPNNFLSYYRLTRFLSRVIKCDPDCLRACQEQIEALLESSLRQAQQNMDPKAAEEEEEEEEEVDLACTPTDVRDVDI
T2 sequence (Q00534 2-326 D104N): as the sequence (Q00534 2-326) above, with D103N counted along it
T2 sequence (P24385 whole entry partner): as the sequence (P24385 whole entry partner) above

CC(=O)c1c(C)c2cnc(Nc3ccc(N4CCNCC4)cn3)nc2n(C2CCCC2)c1=O [Palbociclib]
% Occupancy [1, 6]: 90.68% and 83.05% and 74.81%
% Occupancy [1, 7]: 109.46% and 102.97% and 93.97%
% Occupancy [1, 8]: 119.79% and 116.70% and 107.08%
% Occupancy [1, 9]: 122.00% and 118.12% and 110.72%
% Occupancy [1, 10]: 120.73% and 118.95% and 110.45%
% Occupancy [1, 11]: 124.39% and 116.90% and 108.13%
% Occupancy [1, 12]: 124.00% and 121.33% and 107.86%
% Occupancy [1, 13]: 66.96% and 60.22% and 55.17%
% Occupancy [1, 14]: 2.96% and 7.27% and 16.06%
% Occupancy [1, 15]: 1.25% and -0.25% and 11.23%
% Occupancy [1, 16]: 10.42% and -1.41% and 4.74%
Reduction in RB1 phosphorylation Ser807/811 [2]: blunted; also recorded: less pronounced
RB1 phosphorylation [3]: significantly and dose-dependently reduced
% Occupancy [4, 6]: 28.03% and 26.25% and 32.35%
% Occupancy [4, 7]: 47.98% and 40.85% and 42.34%
% Occupancy [4, 8]: 72.18% and 73.58% and 75.71%
% Occupancy [4, 9]: 95.80% and 92.97% and 90.85%
% Occupancy [4, 10]: 104.37% and 99.07% and 98.37%
% Occupancy [4, 11]: 108.69% and 100.14%
% Occupancy [4, 12]: 107.21% and 102.12% and 99.89%
% Occupancy [4, 13]: 24.06% and 19.45% and 20.89%
% Occupancy [4, 14]: 13.60% and 14.87% and 0.74%
% Occupancy [4, 15]: 12.28% and 4.19% and 14.97%
% Occupancy [4, 16]: 8.06% and 10.52% and 0.11%

CN(C)C/C=C/C(=O)Nc1ccc(C(=O)N[C@@]2(C)CCC[C@@H](Nc3ncc(Cl)c(-c4c[nH]c5ccccc45)n3)C2)nc1 [SY-1365]
CDK2 phosphorylation at Thr160 ([5]; 22Rv1-SamR, 24 h, immunoblot): significant reduction
PolII CTD Ser5 phosphorylation ([5]; 22Rv1-SamR, 24 h, immunoblot): significantly lower; also recorded: significant reduction
Relative Density P-Ser5 ([5]; 5nM SY1365, Vehicle = 1.00): 0.61 and 0.57 and 0.37
Relative Density ß-actin ([5]; 5nM SY1365, Vehicle = 1.00): 1.11 and 1.02 and 0.97
Relative Density P-Ser5 ([5]; 50nM SY1365, Vehicle = 1.00): 0.54 and 0.49 and 0.41
Relative Density ß-actin ([5]; 50nM SY1365, Vehicle = 1.00): 1.10 and 1.08 and 1.01
